For orientation: IC50 means the midpoint of a concentration-inhibition curve.

Where “and” joins values, the source holds several entries; their conditions need not be identical. Equal values may be shown once.

The nature of assay [1]: Inhibition of Escherichia coli UPPS.
The nature of assay [2]: Inhibition of Sulfolobus solfataricus HPPS. Details: species or system Saccharolobus solfataricus.
Assay [3] is described as follows: Inhibition of Escherichia coli OPPS.

The compound `O=P([O-])(O)C(O)(C[n+]1cccc(-c2ccccc2)c1)P(=O)(O)O` (configuration not stated) showed an IC50 in assay [1] of 48 µM.
In the case of `O=P([O-])(O)C(O)(C[n+]1cccc(F)c1)P(=O)(O)O` (configuration not stated), in assay [1], it took 490 µM to reach half-maximal inhibition (IC50).
Consider `O=P(O)(O)C(O)(CCc1cccc(-c2ccccc2-c2ccccc2)c1)P(=O)(O)O`, for which the IC50 in assay [1] stood at 3.1 µM.
As to `O=P(O)(O)C(O)(Cc1cccc(-c2cccc(-c3ccccc3)c2)c1)P(=O)(O)O`, the results for the IC50 in assay [2] and in assay [3] were 0.46 µM and 0.43 µM, respectively.
In the case of `O=P(O)(O)C(O)(CCc1cccc(-c2ccc(-c3ccccc3)cc2)c1)P(=O)(O)O`, the IC50 in assay [1] worked out at 10 µM.
The compound `O=P(O)(O)C(O)(c1cccc(-c2cccc(-c3ccccc3)c2)c1)P(=O)(O)O` gave an IC50 in assay [1] of 1.8 µM.
`O=P([O-])(O)C(C[n+]1cccc(-c2ccccc2-c2ccccc2)c1)P(=O)(O)O` (configuration not stated) showed a half-inhibitory concentration (IC50) in assay [1] of 120 µM.
As to `O=P(O)(O)C(O)(Cc1cccc(-c2cccc(NS(=O)(=O)c3ccc4ccccc4c3)c2)c1)P(=O)(O)O`, the half-inhibitory concentration (IC50) in assay [2] came out at 0.42 µM; in assay [3], 5.4 µM.
With `O=P(O)(O)C1(P(=O)(O)O)CC(c2ccc(Cl)c(Cl)c2)=NO1`, in assay [1], the IC50 was found to be 87 µM.
Take `O=P(O)(O)C(O)(Cc1ccc(-c2ccc(-c3ccccc3)cc2)cc1)P(=O)(O)O`: in assay [1], the half-inhibitory concentration (IC50) stood at 2 µM.
The compound `O=P(O)(O)C(O)(CCc1ccc(-c2cccc3c2oc2ccccc23)cc1)P(=O)(O)O` registered an IC50 in assay [1] of 12 µM.
In the case of `O=P(O)(O)C(O)(COc1cccc(-c2cccc(-c3ccccc3)c2)c1)P(=O)(O)O`, the half-inhibitory concentration (IC50) in assay [2] was determined as 360 µM; in assay [3], 0.075 µM.
For `O=P(O)(O)C(O)(Cc1cccc(-c2ccc(-c3ccccc3)cc2)c1)P(=O)(O)O`, in that order: 2.7 µM and 870 µM.
In the case of `O=P(O)(O)C(O)(Cc1cccc(-c2ccccc2)c1)P(=O)(O)O`, it took 6.8 µM to reach half-maximal inhibition in assay [1] (IC50).
As to `O=P(O)(O)C(O)(CCc1cccc(-c2cccc(-c3ccccc3)c2)c1)P(=O)(O)O`, in assay [1], the IC50 came to 5.5 µM.
In the case of `O=P(O)(O)C(O)(Cc1ccc(-c2cccc(-c3ccccc3)c2)cc1)P(=O)(O)O`, the IC50 in assay [1] came to 1 µM.
With `O=P([O-])(O)C(C[n+]1ccc(-c2ccc(-c3ccccc3)cc2)cc1)P(=O)(O)O` (configuration not stated), the half-maximal inhibitory concentration (IC50) in assay [1] is 28 µM.
For `O=P([O-])(O)C(C[n+]1cccc(-c2ccc(-c3ccccc3)cc2)c1)P(=O)(O)O` (configuration not stated), the midpoint of inhibition in assay [1], the IC50, lay at 35 µM.
In assay [1], `CC(C)=CCC/C(C)=C/Cc1ccc[n+](CC(P(=O)([O-])O)P(=O)(O)O)c1` (configuration not stated) displayed a half-maximal inhibitory concentration (IC50) of 89 µM.
For the compound `O=P([O-])(O)C(C[n+]1cccc(-c2cccc(-c3ccccc3)c2)c1)P(=O)(O)O` (configuration not stated), the IC50 in assay [1] is 68 µM and 21 µM.
Same read-out and setting: under `O=P([O-])(O)C(O)(C[n+]1ccc(-c2cccc3c2oc2ccccc23)cc1)P(=O)(O)O` (configuration not stated) stands 13 µM.
Same read-out and setting: under `O=P([O-])(O)C(C[n+]1cccc(-c2cccc3c2oc2ccccc23)c1)P(=O)(O)O` (configuration not stated) stands 34 µM.
`O=P(O)(O)C(O)(Cc1cccc(-c2cccc3c2oc2ccccc23)c1)P(=O)(O)O`: the 50% inhibitory concentration (IC50) in assay [2] stood at 1.2 µM; in assay [3], 32 µM.
Consider `O=P(O)(O)C(O)(Cc1ccccc1)P(=O)(O)O`, for which the concentration for half-maximal inhibition (IC50) in assay [1] stood at 200 µM.
`O=P(O)(O)C(CCCc1ccc(-c2ccccc2)cc1)P(=O)(O)O` had an IC50 in assay [1] of 69 µM.
For `O=P(O)(O)C(O)(Cc1cnc2ccccn12)P(=O)(O)O` [MINODRONIC ACID], the results for the IC50 in assay [2] and in assay [3] were 0.05 µM and 2.1 µM, respectively.
On to `O=P(O)(O)C(O)(Cc1cccnc1)P(=O)(O)O` [RISEDRONIC ACID], for which the results for the IC50 in assay [2], in assay [1] and in assay [3] were 0.09 µM, 660 µM and 0.038 µM, respectively.
As for `O=P(O)(O)C(O)(Cn1ccnc1)P(=O)(O)O` [ZOLEDRONIC ACID], the results for the IC50 in assay [2] and in assay [3] were 0.09 µM and 0.038 µM, respectively.
